{
  "source": "patent US20260130858A1",
  "about": "“LYOPHILIZED SOVATELTIDE-BASED INJECTABLE FORMULATION AND A PROCESS FOR PREPARATION” (PHARMAZZ, INC., priority 2023, published 2026)",
  "key": {"[1]": {"system": "acute cerebral ischemic stroke patients", "assay": "Phase III study in acute cerebral ischemic stroke patients, modified Rankin Scale at day 90", "format": "in vivo, human", "conditions": "for Odds ratio, change in mRS of 2 or more / Odds ratio, mRS of 0-2 day 90 / Relative Risk, change in mRS of 2 or more / Relative Risk, mRS of 0-2 day 90: control vs sovateltide; for Modified Rankin Scale Day 90, mean: day 90 post-randomization; for Difference between means (B − A) ± SEM, Modified Rankin Scale Day 90: sovateltide minus control", "procedure": "A prospective, multicentric, randomized phase III study was conducted in acute cerebral ischemic stroke patients aged 18 years through 78 years. Patients with radiologic confirmation of ischemic stroke could be enrolled if presenting up to 24 hours after the onset of symptoms and with a modified Rankin Score (mRS) of 3 to 4 and an NIHSS (National Institute of Health Stroke Scale) score of greater than 5. Patients with intracranial haemorrhage and those receiving endovascular therapy were excluded.\nPatients were randomized in a 1:1 ratio, 80 patients to the sovateltide group and 78 patients to the control (saline) group. Every patient received the standard of care (SOC) and was followed for 90 days. The study drug (normal saline or sovateltide (0.3 μg/kg) was administered in three doses administered as an intravenous bolus over 1 minute at an interval of 3 hours±1 hour on day 1, day 3, and day 6 (total sovateltide dose of 0.9 μg/kg/day).\nThe primary objectives were to determine the neurological outcome based on modified Rankin Scale (mRS) score, National Institute of Health Stroke Scale (NIHSS) score, and Barthel Index (BI) scale score from day 1 through day 90. In addition, quality-of-Life was measured by EuroQol-EQ-5D (EQ-5D) and stroke-specific quality-of-life (SSQoL) scores at 60 days and 90 days of treatment.\nA total of 158 patients with acute cerebral ischemic stroke were enrolled in this test, of which 137 completed 90-day follow-up. Patients received saline (n=70; 45 male and 25 female) or sovateltide (n=67; 45 male and 22 female) within 24 hours of the onset of stroke. Patients received the investigational drug […] at 16.85±0.74 and 17.40±0.67 hours (mean±SEM, p=0.583) of stroke onset in control and sovateltide cohorts, respectively. The baseline characteristics and SOC in both cohorts were similar."}, "[2]": {"assay": "Solution stability, related substances HPLC method validation (Method 1)", "conditions": "standard solution at 5° C.; related substances Method 1", "from_the_text": "Chromatographic Parameters for method validation of Related Substance of Sovateltide Injection (Method 1): Method-1 utilizes chromatographic conditions to separate and quantify a specific compound of interest. The analytical column used is either the Xtimate C18 Column or the ChromCore 120 C18 Column, both with dimensions of 4.6×250 mm and 5 m. A Ghost Buster Column with dimensions of 4.6×50 mm is used to detect any unexpected peaks, which are usually called ghost peaks that may interfere with the results. The flow rate is set to 0.5 mL/min, with an injection volume of 90 μL. The detection wavelength is 215 nm, and the auto sampler temperature is maintained at 5° C. The column oven temperature is set to 50° C., and the run time for the method is 120 min. […] These parameters ensure the separation and accurate quantification of the compound in the sample.\n• Mobile Phase A (KH2PO4+ Sodium Chloride in HPLC water). • Mobile Phase-B (Methanol)."}, "[3]": {"conditions": "with cerebrolysin, listed as sovateltide"}, "[4]": {"conditions": "with citicoline, listed as sovateltide"}, "[5]": {"conditions": "with mannitol, sovateltide group n=30"}, "[6]": {"conditions": "with mannitol, sovateltide group n=30, listed as sovateltide"}, "[7]": {"conditions": "with thrombolytics, listed as sovateltide"}},
  "data": [
    {"substance": "succinyl-(glutamyl(9)-alanyl(11,15))-endothelin-1 (8-21) [Sovateltide]", "values": [
      {"measurement": "Number of patients with change in mRS < 2 from day 1 to day 90", "setting": "[1]; with cerebrolysin", "value": 1},
      {"measurement": "Number of patients with mRS 0-2 day 90", "setting": "[1]; with cerebrolysin", "value": 11},
      {"measurement": "Number of patients with mRS > 2 day 90", "setting": "[1]; with cerebrolysin", "value": 1},
      {"measurement": "Number of patients, change in mRS of 2 or more from day 1 to day 90 (column head mRS > 2)", "setting": "[1]; with cerebrolysin", "value": 11},
      {"measurement": "Percentage of row total, change in mRS < 2", "setting": "[1]; with cerebrolysin", "value": 8.33, "unit": "%"},
      {"measurement": "Percentage of row total, change in mRS ≥ 2", "setting": "[1]; with cerebrolysin", "value": 91.67, "unit": "%"},
      {"measurement": "Percentage of row total, mRS 0-2 day 90", "setting": "[1]; with cerebrolysin", "value": 91.67, "unit": "%"},
      {"measurement": "Percentage of row total, mRS > 2 day 90", "setting": "[1]; with cerebrolysin", "value": 8.33, "unit": "%"},
      {"measurement": "Odds ratio, change in mRS of 2 or more", "setting": "[1]; with cerebrolysin", "value": 0.5455},
      {"measurement": "Odds ratio, mRS of 0-2 day 90", "setting": "[1]; with cerebrolysin", "value": 0.8462},
      {"measurement": "Relative Risk, change in mRS of 2 or more", "setting": "[1]; with cerebrolysin", "value": 0.9351},
      {"measurement": "Relative Risk, mRS of 0-2 day 90", "setting": "[1]; with cerebrolysin", "value": 0.8571},
      {"measurement": "Modified Rankin Scale Day 90, mean", "setting": "[1]; with cerebrolysin, sovateltide group n=12", "value": 0.7500},
      {"measurement": "Number of patients with mRS 0-2 day 90", "setting": "[1]; [3]", "value": "similar"},
      {"measurement": "Number of patients, change in mRS of 2 or more from day 1 to day 90 (column head mRS > 2)", "setting": "[1]; [3]", "value": "similar"},
      {"measurement": "Difference between means (B − A) ± SEM, Modified Rankin Scale Day 90", "setting": "[1]; with cerebrolysin", "value": "−0.3214 ± 0.3517"},
      {"measurement": "Number of patients with change in mRS < 2 from day 1 to day 90", "setting": "[1]; with citicoline", "value": 5},
      {"measurement": "Number of patients with change in mRS ≥ 2 from day 1 to day 90", "setting": "[1]; with citicoline", "value": 18},
      {"measurement": "Number of patients with mRS 0-2 day 90", "setting": "[1]; with citicoline", "value": 21},
      {"measurement": "Number of patients with mRS > 2 day 90", "setting": "[1]; with citicoline", "value": 3},
      {"measurement": "Percentage of row total, change in mRS < 2", "setting": "[1]; with citicoline", "value": 21.74, "unit": "%"},
      {"measurement": "Percentage of row total, change in mRS ≥ 2", "setting": "[1]; with citicoline", "value": 78.26, "unit": "%"},
      {"measurement": "Percentage of row total, mRS 0-2 day 90", "setting": "[1]; with citicoline", "value": 87.50, "unit": "%"},
      {"measurement": "Percentage of row total, mRS > 2 day 90", "setting": "[1]; with citicoline", "value": 12.50, "unit": "%"},
      {"measurement": "Odds ratio, change in mRS of 2 or more", "setting": "[1]; with citicoline", "value": 0.3283},
      {"measurement": "Odds ratio, mRS of 0-2 day 90", "setting": "[1]; with citicoline", "value": 4.500},
      {"measurement": "Relative Risk, change in mRS of 2 or more", "setting": "[1]; with citicoline", "value": 0.6921},
      {"measurement": "Relative Risk, mRS of 0-2 day 90", "setting": "[1]; with citicoline", "value": 3.130},
      {"measurement": "Modified Rankin Scale Day 90, mean", "setting": "[1]; with citicoline, sovateltide group n=24", "value": 1.208},
      {"measurement": "Modified Rankin Scale Day 90, mean", "setting": "[1]; with citicoline, sovateltide group n=24, listed as sovateltide", "value": "significantly lower"},
      {"measurement": "Number of patients with change in mRS ≥ 2 from day 1 to day 90", "setting": "[1]; [4]", "value": "significantly more"},
      {"measurement": "Number of patients with mRS 0-2 day 90", "setting": "[1]; [4]", "value": "significantly more"},
      {"measurement": "Difference between means (B − A) ± SEM, Modified Rankin Scale Day 90", "setting": "[1]; with citicoline", "value": "−0.7917 ± 0.3638"},
      {"measurement": "Percentage of row total, change in mRS < 2", "setting": "[1]; with mannitol", "value": 36.67, "unit": "%"},
      {"measurement": "Percentage of row total, change in mRS ≥ 2", "setting": "[1]; with mannitol", "value": 63.33, "unit": "%"},
      {"measurement": "Percentage of row total, mRS 0-2 day 90", "setting": "[1]; with mannitol", "value": 63.33, "unit": "%"},
      {"measurement": "Percentage of row total, mRS > 2 day 90", "setting": "[1]; with mannitol", "value": 36.67, "unit": "%"},
      {"measurement": "Odds ratio, change in mRS of 2 or more", "setting": "[1]; with mannitol", "value": 0.3184},
      {"measurement": "Odds ratio, mRS of 0-2 day 90", "setting": "[1]; with mannitol", "value": 2.735},
      {"measurement": "Relative Risk, change in mRS of 2 or more", "setting": "[1]; with mannitol", "value": 0.5603},
      {"measurement": "Relative Risk, mRS of 0-2 day 90", "setting": "[1]; with mannitol", "value": 1.672},
      {"measurement": "Modified Rankin Scale Day 90, mean", "setting": "[1]; [5]", "value": 2.033},
      {"measurement": "Modified Rankin Scale Day 90, mean", "setting": "[1]; [6]", "value": "significantly lower"},
      {"measurement": "Number of patients with change in mRS < 2 from day 1 to day 90", "setting": "[1]; [5]", "value": 11},
      {"measurement": "Number of patients with change in mRS ≥ 2 from day 1 to day 90", "setting": "[1]; [5]", "value": 19},
      {"measurement": "Number of patients with mRS 0-2 day 90", "setting": "[1]; [5]", "value": 19},
      {"measurement": "Number of patients with mRS > 2 day 90", "setting": "[1]; [5]", "value": 11},
      {"measurement": "Number of patients with change in mRS ≥ 2 from day 1 to day 90", "setting": "[1]; [6]", "value": "significantly more"},
      {"measurement": "Number of patients with mRS 0-2 day 90", "setting": "[1]; [6]", "value": "significantly more"},
      {"measurement": "Difference between means (B − A) ± SEM, Modified Rankin Scale Day 90", "setting": "[1]; with mannitol", "value": "−0.7086 ± 0.3316"},
      {"measurement": "Number of patients with change in mRS < 2 from day 1 to day 90", "setting": "[1]; with thrombolytics", "value": 3},
      {"measurement": "Number of patients with change in mRS ≥ 2 from day 1 to day 90", "setting": "[1]; with thrombolytics", "value": 6},
      {"measurement": "Number of patients with mRS 0-2 day 90", "setting": "[1]; with thrombolytics", "value": 6},
      {"measurement": "Number of patients with mRS > 2 day 90", "setting": "[1]; with thrombolytics", "value": 3},
      {"measurement": "Percentage of row total, change in mRS < 2", "setting": "[1]; with thrombolytics", "value": 33.33, "unit": "%"},
      {"measurement": "Percentage of row total, change in mRS ≥ 2", "setting": "[1]; with thrombolytics", "value": 66.67, "unit": "%"},
      {"measurement": "Percentage of row total, mRS 0-2 day 90", "setting": "[1]; with thrombolytics", "value": 66.67, "unit": "%"},
      {"measurement": "Percentage of row total, mRS > 2 day 90", "setting": "[1]; with thrombolytics", "value": 33.33, "unit": "%"},
      {"measurement": "Odds ratio, change in mRS of 2 or more", "setting": "[1]; with thrombolytics", "value": 0.7500},
      {"measurement": "Odds ratio, mRS of 0-2 day 90", "setting": "[1]; with thrombolytics", "value": 1.333},
      {"measurement": "Relative Risk, change in mRS of 2 or more", "setting": "[1]; with thrombolytics", "value": 0.9000},
      {"measurement": "Relative Risk, mRS of 0-2 day 90", "setting": "[1]; with thrombolytics", "value": 1.200},
      {"measurement": "Modified Rankin Scale Day 90, mean", "setting": "[1]; with thrombolytics, sovateltide group n=9", "value": 1.667},
      {"measurement": "Number of patients with change in mRS ≥ 2 from day 1 to day 90", "setting": "[1]; [7]", "value": "similar"},
      {"measurement": "Number of patients with mRS 0-2 day 90", "setting": "[1]; [7]", "value": "similar"},
      {"measurement": "Difference between means (B − A) ± SEM, Modified Rankin Scale Day 90", "setting": "[1]; with thrombolytics", "value": "−0.2833 ± 0.6321"},
      {"measurement": "Time standard solution is stable", "setting": "[2]", "value": "up to 60 Hours"}
    ]}
  ]
}
